{FAM} = fluorescein (FAM) reporter dye; {TAMRA} = TAMRA quencher dye
Columns and labels:
FRET substrate (SL1) = assay: Real time FRET measurement of ribozyme cleavage activity (HHR1 with substrate SL1); format: biochemical; conditions: HHR1 4 nM, 37° C.; SL1 vs S1 (conventional gel/autoradiography method)
Text: As the increase in fluorescence is directly correlated to the cleavage rate, the system is suitable for a sensitive, non-radioactive and fast analysis of ribozyme activities. A FRET substrate (SLI) was constructed on the basis of a known HHR/substrate complex (M. Fedor, O. C. Uhlenbeck, Proc. Natl. Acad. Sci. USA (1990), 87, 1668-1672) and was used for a time-dependent measurement of ribozyme activity (HHR1). […] The Michaelis-Menten parameter of HHR can be obtained in a single experiment by measurement of the cleavage-caused rise in fluorescence at different substrate concentrations.
In order to find out whether the method is suitable for the fast characterization of ribozymes, the activity was measured in parallel batches while various physico-chemical parameters were modified.
FIGS. 3b-d show the dependency of the reaction rate on the pH value, the temperature and the Mg^2+ concentration. […]
Characterization of the cleavage activity at 4 nM HHR1 and 200 or 300 nM SL1. (a) Time-dependent course of cleavage with the reciprocally exponential regression curve (only 1% of all data points measured are depicted). […] (0.0134 nM^−1 min^−1) were also determined.
The real time measurements of the rise in fluorescence caused by the ribozyme were taken in 50 μl reaction batches. The signal measured comprises both the chemical step of cleavage and the release of the cleavage products. […]

substrate RNA SL1 = assay: Real time measurement of fluorescence at cleavage of SL1 by HHR1 transcribed in vitro with T7-RNA polymerase; format: biochemical; conditions: 900 nM SL1, 37° C., 535 nm, T7 in-vitro transcription
Protocol: A typical 50 μl reaction batch contained: 40 mM tris HCl, pH 8.0, 50 mM NaCl, 2 mM spermidin, 5 mM dithiothreitol, 5 to 25 mM MgCl2, about 500 nM SL1, 0.2 to 2 μM HHR1-DNA or HHR1mut-DNA, 4mM A/C/G/UTP and 50 units of T7-RNA-polymerase. […] In-vitro transcription was started by the addition of the polymerase, and incubation was carried out at 37° C. while the measurement was taken. • 3. Real Time Measurement of Fluorescence at Cleavage of SL1 by HHR1:
The fluorescence of the transcription batches was measured in an automated manner in an ABI Prism 770 spectrometer (Applied Biosystems, USA), the temperature of which could be adjusted. The spectra in the emission wavelength range of the two dyes (FAM, λmax=518 nm and TAMRA, λmax=582 nm) were recorded in intervals of 7 seconds (excitation energy=488 nm). After an incubation time of 3 hours, the collected data were evaluated by the software contained in the equipment. For a real time control of the individual transcriptions, the fluorescence spectra (range of 500 nm to 660 nm) were projected time-dependently over the spectrum of the reference transcription (with non-functional HHR1mut DNA).

Substance | Kcat and KM values of FRET substrate compared with 32P labeled substrate S1 (FRET substrate (SL1)) | relative fluorescence ΔRn of the fluorophore / fluorescence signal (substrate RNA SL1)
5′-FAM-ACG AGU CAG GAU U-TAMRA-3′ (ACGAGUCAGGAUU; RNA, 5' {FAM}, 3' {TAMRA}, backbone not given here) [SL1, 5′-FAM and 3′-TAMRA labeled substrate RNA (FRET substrate)] | in the same order of magnitude | –
5′-TCT AAT ACG ACT CAC TAT A GGGTCCTCTGATGAGGCCGTTAGGCCGAAACTCGT-3′ [HHR1-DNA] | – | increased with the incubation times
5′-TCT AAT ACG ACT CAC TAT A GGGTCCTCTTAGGAGGCCGTTAGGCCAGAACTCGT-3′ [HHR1mut, reference compound] | – | no influence

— patent publication US6861223B2, “Ribozyme-encoding DNA and a composition containing an oligonucleotide substrate and a method for measuring transcription rates” (priority 1998, dated 2005)
